*1 amine or outer side, *2 acyl side, *3 side chain or, on linkers, in order; H or OH if unused. Where a SMILES comes first, the peptide text is derived from it. Side-chain parts run from the residue outwards. [ ]: non-standard residue; d: D form. The star is where a group is joined. C20 diacid = O=C(O)CCCCCCCCCCCCCCCCCCC(=O)*; γGlu = O=C(O)[C@H](CCC(=O)[*:2])N[*:1]; αMeY = C[C@](N)(Cc1ccc(O)cc1)C(=O)O; 4Pal = N[C@@H](Cc1ccncc1)C(=O)O; αMeL = CC(C)C[C@](C)(N)C(=O)O; Iva = CC[C@](C)(N)C(=O)O; Orn = NCCC[C@H](N)C(=O)O; AEEA = NCCOCCOCC(=O)O; Aib = CC(C)(N)C(=O)O
Columns and labels:
human GIPR = molecular target: T1, human GIPR (Homo sapiens, UniProt P48546); test: [125I]-GIP binding, SPA with WGA beads, 0.1% bacitracin; settings: geometric mean, read-out: hGIPR Ki
T1 construct: expressed in transfected cells; crude membranes
T1 sequence (P48546 22-466): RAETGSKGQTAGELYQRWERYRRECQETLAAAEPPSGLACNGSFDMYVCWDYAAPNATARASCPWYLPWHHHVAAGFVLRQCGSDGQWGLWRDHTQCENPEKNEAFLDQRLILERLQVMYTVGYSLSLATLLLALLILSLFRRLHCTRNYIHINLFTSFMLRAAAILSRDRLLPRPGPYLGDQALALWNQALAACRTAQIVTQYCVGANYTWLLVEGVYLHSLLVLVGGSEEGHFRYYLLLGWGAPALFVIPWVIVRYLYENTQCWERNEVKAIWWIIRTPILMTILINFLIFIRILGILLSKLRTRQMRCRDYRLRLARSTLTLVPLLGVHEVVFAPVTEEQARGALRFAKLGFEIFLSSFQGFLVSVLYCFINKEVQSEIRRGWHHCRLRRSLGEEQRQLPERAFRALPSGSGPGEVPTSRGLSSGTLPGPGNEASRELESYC
In short: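 Ki values are geometric means (SEM, n independent days), derived from four-parameter nonlinear regression of IC50. Membranes came from hGIPR-expressing CHO cells.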

human GcgR = molecular target: T2, human GcgR (Homo sapiens, UniProt P47871); test: [125I]-Glucagon binding, SPA with WGA beads, 0.1% bacitracin; settings: geometric mean, read-out: hGcgR Ki
T2 construct: expressed in transfected cells; crude membranes
In short: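 SPA competition binding with WGA beads on crude membranes from HEK293 cells stably expressing hGcgR. Buffer: 25 mM HEPES pH 7.4, 2.5 mM CaCl2, 1 mM MgCl2, 0.1% bacitracin, 0.003% Tween-20; 10-point 3-fold dilutions, NSB with 1 μM Gcg.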

T2 sequence (P47871 26-477): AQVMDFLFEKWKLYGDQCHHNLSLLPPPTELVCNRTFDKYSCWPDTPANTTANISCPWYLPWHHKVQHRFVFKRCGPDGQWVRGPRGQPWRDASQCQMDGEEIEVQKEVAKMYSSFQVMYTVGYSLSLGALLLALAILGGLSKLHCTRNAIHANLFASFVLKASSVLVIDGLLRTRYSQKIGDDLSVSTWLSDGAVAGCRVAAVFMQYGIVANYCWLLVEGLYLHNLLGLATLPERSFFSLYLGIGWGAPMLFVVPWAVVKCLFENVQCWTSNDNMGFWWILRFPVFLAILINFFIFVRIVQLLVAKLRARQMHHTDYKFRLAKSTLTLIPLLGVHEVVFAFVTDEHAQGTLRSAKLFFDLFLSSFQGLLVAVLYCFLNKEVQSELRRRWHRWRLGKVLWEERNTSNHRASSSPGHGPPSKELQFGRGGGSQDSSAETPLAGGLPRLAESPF

Row | Structure (SMILES) | Ki (human GIPR) | Ki (human GcgR)
1 | CC[C@H](C)[C@H](NC(=O)[C@H](CO)NC(=O)[C@H](Cc1ccc(O)cc1)NC(=O)[C@H](CC(=O)O)NC(=O)[C@H](CO)NC(=O)[C@@H](NC(=O)[C@H](Cc1ccccc1)NC(=O)[C@@H](NC(=O)CNC(=O)[C@H](CCC(=O)O)NC(=O)C(C)(C)NC(=O)[C@@H](N)Cc1ccc(O)cc1)[C@@H](C)O)[C@@H](C)CC)C(=O)N[C@@H](CC(C)C)C(=O)N[C@@H](CC(C)C)C(=O)N[C@@H](CC(=O)O)C(=O)N[C@@H](CCCCN)C(=O)N[C@@H](CCCCNC(=O)COCCOCCNC(=O)COCCOCCNC(=O)CC[C@H](NC(=O)CCCCCCCCCCCCCCCCCCC(=O)O)C(=O)O)C(=O)N[C@@H](C)C(=O)N[C@@H](CCC(N)=O)C(=O)NC(C)(C)C(=O)N[C@@H](CC(=O)O)C(=O)N[C@@H](Cc1ccccc1)C(=O)N[C@H](C(=O)N[C@@H](CC(N)=O)C(=O)N[C@@H](Cc1c[nH]c2ccccc12)C(=O)N[C@@H](CC(C)C)C(=O)N[C@@H](CC(C)C)C(=O)N[C@@H](C)C(=O)N[C@@H](CCC(N)=O)C(=O)NCC(=O)N1CCC[C@H]1C(=O)N[C@@H](CO)C(=O)N[C@@H](CO)C(=O)NCC(=O)N[C@@H](C)C(=O)N1CCC[C@H]1C(=O)N1CCC[C@H]1C(=O)N1CCC[C@H]1C(=O)N[C@@H](CO)C(N)=O)C(C)C [Example 8] (H-Y[Aib]EGTFISDYSILLDKK([AEEA-AEEA-γGlu-C20 diacid])AQ[Aib]DFVNWLLAQGPSSGAPPPS-NH2) | 27 pM | 101000 pM
2 | CC[C@H](C)[C@H](NC(=O)[C@H](Cc1ccccc1)NC(=O)[C@@H](NC(=O)CNC(=O)[C@H](CCC(=O)O)NC(=O)C(C)(C)NC(=O)[C@@H](N)Cc1ccc(O)cc1)[C@@H](C)O)C(=O)N[C@@H](CO)C(=O)N[C@@H](CC(=O)O)C(=O)N[C@@H](Cc1ccc(O)cc1)C(=O)N[C@@H](CO)C(=O)N[C@H](C(=O)N[C@@](C)(CC(C)C)C(=O)N[C@@H](CC(C)C)C(=O)N[C@@H](CC(=O)O)C(=O)N[C@@H](CCCCN)C(=O)N[C@@H](CCCCNC(=O)COCCOCCNC(=O)COCCOCCNC(=O)CC[C@H](NC(=O)CCCCCCCCCCCCCCCCCCC(=O)O)C(=O)O)C(=O)N[C@@H](Cc1c[nH]cn1)C(=O)N[C@@H](CCC(N)=O)C(=O)NC(C)(C)C(=O)N[C@@H](CC(=O)O)C(=O)N[C@@H](Cc1ccccc1)C(=O)N[C@H](C(=O)N[C@@H](CCC(=O)O)C(=O)N[C@@](C)(Cc1ccc(O)cc1)C(=O)N[C@@H](CC(C)C)C(=O)N[C@@H](CC(C)C)C(=O)N[C@@H](CCC(=O)O)C(=O)NCC(=O)NCC(=O)N1CCC[C@H]1C(=O)N[C@@H](CO)C(=O)N[C@@H](CO)C(=O)NCC(=O)N[C@@H](C)C(=O)N1CCC[C@H]1C(=O)N1CCC[C@H]1C(=O)N1CCC[C@H]1C(=O)N[C@@H](CO)C(N)=O)C(C)C)[C@@H](C)CC [Example 91] (H-Y[Aib]EGTFISDYSI[αMeL]LDKK([AEEA-AEEA-γGlu-C20 diacid])HQ[Aib]DFVE[αMeY]LLEGGPSSGAPPPS-NH2) | 122 pM | 54400 pM
3 | CC[C@H](C)[C@H](NC(=O)[C@H](Cc1ccccc1)NC(=O)[C@@H](NC(=O)CNC(=O)[C@H](CCC(=O)O)NC(=O)C(C)(C)NC(=O)[C@@H](N)Cc1ccc(O)cc1)[C@@H](C)O)C(=O)N[C@@H](CO)C(=O)N[C@@H](CC(=O)O)C(=O)N[C@@H](Cc1ccc(O)cc1)C(=O)N[C@@H](CO)C(=O)N[C@H](C(=O)N[C@@](C)(CC(C)C)C(=O)N[C@@H](CC(C)C)C(=O)N[C@@H](CC(=O)O)C(=O)N[C@@H](CCC(=O)O)C(=O)N[C@@H](CCCCNC(=O)COCCOCCNC(=O)COCCOCCNC(=O)CC[C@H](NC(=O)CCCCCCCCCCCCCCCCCCC(=O)O)C(=O)O)C(=O)N[C@@H](Cc1c[nH]cn1)C(=O)N[C@@H](CCC(N)=O)C(=O)NC(C)(C)C(=O)N[C@@H](CC(=O)O)C(=O)N[C@@H](Cc1ccccc1)C(=O)N[C@H](C(=O)N[C@@H](CCC(=O)O)C(=O)N[C@@H](Cc1ccncc1)C(=O)N[C@@H](CC(C)C)C(=O)N[C@@H](CC(C)C)C(=O)N[C@@H](C)C(=O)N[C@H](C(=O)NCC(=O)N1CCC[C@H]1C(=O)N[C@@H](CO)C(=O)N[C@@H](CO)C(=O)NCC(=O)N[C@@H](C)C(=O)N1CCC[C@H]1C(=O)N1CCC[C@H]1C(=O)N1CCC[C@H]1C(=O)N[C@@H](CO)C(N)=O)[C@@H](C)O)C(C)C)[C@@H](C)CC [Example 83] (H-Y[Aib]EGTFISDYSI[αMeL]LDEK([AEEA-AEEA-γGlu-C20 diacid])HQ[Aib]DFVE[4Pal]LLATGPSSGAPPPS-NH2) | 116 pM | > 958000 pM
4 | CC[C@H](C)[C@H](NC(=O)[C@H](CO)NC(=O)[C@H](Cc1ccc(O)cc1)NC(=O)[C@H](CC(=O)O)NC(=O)[C@H](CO)NC(=O)[C@@H](NC(=O)[C@](C)(CC)NC(=O)[C@@H](NC(=O)CNC(=O)[C@H](CCC(=O)O)NC(=O)C(C)(C)NC(=O)[C@@H](N)Cc1ccc(O)cc1)[C@@H](C)O)[C@@H](C)CC)C(=O)N[C@@](C)(CC(C)C)C(=O)N[C@@H](CC(C)C)C(=O)N[C@@H](CC(=O)O)C(=O)N[C@@H](CCCN)C(=O)N[C@@H](CCCCNC(=O)COCCOCCNC(=O)COCCOCCNC(=O)CC[C@H](NC(=O)CCCCCCCCCCCCCCCCCCC(=O)O)C(=O)O)C(=O)N[C@@H](Cc1c[nH]cn1)C(=O)N[C@@H](CCC(N)=O)C(=O)NC(C)(C)C(=O)N[C@@H](CC(=O)O)C(=O)N[C@@H](Cc1ccccc1)C(=O)N[C@H](C(=O)N[C@@H](CCC(=O)O)C(=O)N[C@@H](Cc1ccncc1)C(=O)N[C@@H](CC(C)C)C(=O)N[C@@H](CC(C)C)C(=O)N[C@@H](CCC(=O)O)C(=O)NCC(=O)NCC(=O)N1CCC[C@H]1C(=O)N[C@@H](CO)C(=O)N[C@@H](CO)C(=O)NCC(=O)N[C@@H](C)C(=O)N1CCC[C@H]1C(=O)N1CCC[C@H]1C(=O)N1CCC[C@H]1C(=O)N[C@@H](CO)C(N)=O)C(C)C [Example 76] (H-Y[Aib]EGT[Iva]ISDYSI[αMeL]LD[Orn]K([AEEA-AEEA-γGlu-C20 diacid])HQ[Aib]DFVE[4Pal]LLEGGPSSGAPPPS-NH2) | 29.3 pM | 358000 pM
5 | CC[C@H](C)[C@H](NC(=O)[C@H](CCCCN)NC(=O)[C@H](CC(=O)O)NC(=O)[C@H](CC(C)C)NC(=O)[C@](C)(CC(C)C)NC(=O)[C@@H](NC(=O)[C@H](CO)NC(=O)[C@H](Cc1ccc(O)cc1)NC(=O)[C@H](CC(=O)O)NC(=O)[C@H](CO)NC(=O)[C@@H](NC(=O)[C@H](Cc1ccccc1)NC(=O)[C@@H](NC(=O)CNC(=O)[C@H](CCC(=O)O)NC(=O)C(C)(C)NC(=O)[C@@H](N)Cc1ccc(O)cc1)[C@@H](C)O)[C@@H](C)CC)[C@@H](C)CC)C(=O)N[C@@H](Cc1c[nH]cn1)C(=O)N[C@@H](CCC(N)=O)C(=O)NC(C)(C)C(=O)N[C@@H](CC(=O)O)C(=O)N[C@@H](Cc1ccccc1)C(=O)N[C@H](C(=O)N[C@@H](CCC(=O)O)C(=O)N[C@@H](Cc1ccc(O)cc1)C(=O)N[C@@H](CCCCNC(=O)COCCOCCNC(=O)COCCOCCNC(=O)CC[C@H](NC(=O)CCCCCCCCCCCCCCCCCCC(=O)O)C(=O)O)C(=O)N[C@@H](CC(C)C)C(=O)N[C@@H](CCC(=O)O)C(=O)NCC(=O)NCC(=O)N1CCC[C@H]1C(=O)N[C@@H](CO)C(=O)N[C@@H](CO)C(=O)NCC(=O)N[C@@H](C)C(=O)N1CCC[C@H]1C(=O)N1CCC[C@H]1C(=O)N1CCC[C@H]1C(=O)N[C@@H](CO)C(N)=O)C(C)C [Example 5] | 77.1 pM | 619000 pM
6 | CC[C@H](C)[C@H](NC(=O)[C@H](CCCN)NC(=O)[C@H](CC(=O)O)NC(=O)[C@H](CC(C)C)NC(=O)[C@](C)(CC(C)C)NC(=O)[C@@H](NC(=O)[C@H](CO)NC(=O)[C@H](Cc1ccc(O)cc1)NC(=O)[C@H](CC(=O)O)NC(=O)[C@H](CO)NC(=O)[C@@H](NC(=O)[C@H](Cc1ccccc1)NC(=O)[C@@H](NC(=O)CNC(=O)[C@H](CCC(=O)O)NC(=O)C(C)(C)NC(=O)[C@@H](N)Cc1ccc(O)cc1)[C@@H](C)O)[C@@H](C)CC)[C@@H](C)CC)C(=O)N[C@@H](Cc1c[nH]cn1)C(=O)N[C@@H](CCC(N)=O)C(=O)NC(C)(C)C(=O)N[C@@H](CC(=O)O)C(=O)N[C@@H](Cc1ccccc1)C(=O)N[C@H](C(=O)N[C@@H](CCC(=O)O)C(=O)N[C@@H](Cc1ccncc1)C(=O)N[C@@H](CCCCNC(=O)COCCOCCNC(=O)COCCOCCNC(=O)CC[C@H](NC(=O)CCCCCCCCCCCCCCCCCCC(=O)O)C(=O)O)C(=O)N[C@@H](CC(C)C)C(=O)N[C@@H](CCC(=O)O)C(=O)NCC(=O)NCC(=O)N1CCC[C@H]1C(=O)N[C@@H](CO)C(=O)N[C@@H](CO)C(=O)NCC(=O)N[C@@H](C)C(=O)N1CCC[C@H]1C(=O)N1CCC[C@H]1C(=O)N1CCC[C@H]1C(=O)N[C@@H](CO)C(N)=O)C(C)C [Example 108] (H-Y[Aib]EGTFISDYSI[αMeL]LD[Orn]IHQ[Aib]DFVE[4Pal]K([AEEA-AEEA-γGlu-C20 diacid])LEGGPSSGAPPPS-NH2) | 134 pM | > 960000 pM

From US12723063B2, “GIPR-agonist compounds” (Eli Lilly and Company, priority 2019, dated 2026)
